Row | SMILES | melting point [°C]
1 | FC(F)(F)C(F)(F)C(F)(F)C(F)(F)C(F)(F)C(F)(F)C(F)(F)C(F)(F)C(F)(F)C(F)(F)C(F)(F)Br | 96 to 98
2 | O=[N+]([O-])c1ccc2nc(-c3ccccc3)sc2c1 | 179 to 181
3 | CCCCCN(C[C@H]1CC[C@H](CN(CCCCC)C(=O)Nc2ccc(N(C)C)cc2)CC1)C(=O)Nc1ccc(N(C)C)cc1 | 205 to 208
4 | O=C1NCCCc2cc(CCN3CCC(c4noc5cc(F)ccc45)CC3)sc21 | 192 to 194
5 | CCN(C)c1nc2cc(Br)ccn2n1 | 109 to 111
6 | CCOC(=O)N(CCNc1ccc2ncc(Br)n2n1)c1ccccc1 | 160 to 161
7 | CSc1nc(-c2nnn(C)n2)c(I)c(C(F)(F)F)n1 | 113 to 118
8 | Nc1cncnc1NCCN1CCC(Nc2nc3ccccc3n2Cc2ccc(F)cc2)CC1 | 208
9 | Cc1noc(C)c1COc1ccc(C(=O)O)c(O)c1 | 201 to 203
10 | CC(=O)OCCOCn1cnc2c(N)nc(N)nc21 | 69 to 70
11 | NC/C(=C\F)COc1ccc(Cl)cc1Cl | 104
12 | COC(=O)[C@H](Cc1ccc(NC(=S)NCCN2CCOCC2)cc1)NC(=O)[C@@H]1CCCN1S(=O)(=O)c1ccc(C)cc1 | 158 to 168
13 | N#Cc1cc(/C=C/C(c2cc(Cl)c(Cl)c(Cl)c2)C(F)(F)F)ccc1-n1cnc(NC(=O)C2CC2)n1 (stereo not drawn) | 109 to 112
14 | COc1ccc(C(=O)c2ccccc2N)cc1 | 76 to 77
15 | COc1ccc(N(C(=O)CN2C(=O)CC(=O)N(c3ccncc3)c3ccccc32)C(C)C)cc1 | 211 to 213
16 | Cc1ccccc1C(=O)Nc1ccc(-n2nc(C(F)(F)F)cc2C2CC2)c(F)c1 | 142 to 144
17 | Brc1ccc2c(CCN3CCCCC3)c(-c3ccccc3)[nH]c2c1 | > 230
18 | CN(C)C(=O)n1cc(C(=O)C2CSC(c3cccnc3)N2)c2ccc(-c3ccccc3)cc21 (stereo not drawn) | 91 to 97
19 | O=C1CCN(Cc2ccc(O)cc2)CC1C(c1ccccc1)c1ccccc1 (stereo not drawn) | 133 to 134
20 | O=C1CCC(N2C(=O)c3cccc(NC(=O)Cc4ccccc4)c3C2=O)C(=O)N1 (stereo not drawn) | 217 to 218
21 | CCCCc1nc2c(N)nc3cc(OCc4ccccc4)ccc3c2n1CCOc1ccccc1 | 188 to 189
22 | N#Cc1ccc(Nc2cccc(I)c2)c([N+](=O)[O-])c1 | 211 to 212
23 | CC(=O)C1CC2=C(CO1)C(=O)c1ccccc1C2=O (stereo not drawn) | 135 to 136

Row | SMILES | melting point [°C]
24 | CCCCc1nc2c(N)nc3ccccc3c2n1CCCCCS(C)(=O)=O | 173 to 175
25 | CC(O)=C(C#N)C(=O)Nc1cc(Br)ccc1Br | 148 to 150
26 | O=c1[nH]c2cccc(O)c2n1CCN1CCN(c2cccc(C(F)(F)F)c2)CC1 | 246
27 | NS(=O)(=O)c1ccc(-c2cnn(-c3ccc(F)cc3)c(=O)c2-c2ccc(F)cc2)cc1 | 213 to 216
28 | CC1C(N(C)C)CCN2c3ccccc3Cc3ccccc3C12 (stereo not drawn) | 174 to 176
29 | CCCc1cc2cc(OCC(=O)O)c(Cl)c(Cl)c2s1 | 165 to 166
30 | ClCc1coc(-c2cc3ccccc3o2)n1 | 133 to 134
31 | Clc1ncc(-c2ccccc2)cn1 | 130 to 132
32 | Cn1cncc1C(O)(c1ccc(F)cc1)c1ccc2c(c1)C(c1cccc(Cl)c1)Nc1nnnn1-2 (stereo not drawn) | 121
33 | Cc1ccc(C(O)CN2CCNC2=S)cc1 (stereo not drawn) | 123
34 | COc1ccc2c(n1)C1(CO2)C(=O)N(Cc2ccc(C(F)(F)F)o2)c2cccc(Cl)c21 (stereo not drawn) | 106 to 108
35 | O=C1NC(=O)C(Cc2ccc(C(=O)CCc3ccccc3)cc2)S1 (stereo not drawn) | 119 to 121
36 | O=Cc1c2c(cn1Cc1ccccc1)OCCO2 | 75
37 | CC(=O)NN1CCN(C(=O)Cn2c(=O)sc3ccc(Cl)cc32)CC1 | 284 to 285
38 | COc1c(N2CC[C@@H](C3(NCCO)CC3)C2)c(F)cc2c(=O)c(C(=O)O)cn([C@@H]3C[C@@H]3F)c12 | 153 to 155
39 | CC(C)C(c1cncnc1C#N)N(C)C(=O)Cc1ccccc1 (stereo not drawn) | 80 to 81
40 | COn1c(Br)c(Br)c(C#N)c1-c1ccc(Cl)cc1 | 190
41 | O=CNCc1ccc(CN2CCN(c3ccccc3)CC2)cc1 | 108 to 109
42 | Cc1cc(C(=O)OC2CC3C(=O)NC4(C(=O)NS(=O)(=O)C5CC5)CC4C=CCCCCCC(NC(=O)OC(C)(C)C)C(=O)N3C2)no1 (stereo not drawn) | 157 to 159
43 | CN1CCN(c2ccc3nc(N)c(C#N)c(NCc4ccccc4)c3c2)CC1 | 176
44 | CCCCCCCCNC(=O)Nc1sc(C(=O)OC(C)CCCCCC)c(C)c1C(=O)OC(C)(C)C (stereo not drawn) | 92 to 94
45 | Clc1ccn(-c2cccnc2)n1 | 98 to 106
46 | COC(=O)c1cc(Br)ncc1F | 43 to 46

Row | SMILES | melting point [°C]
47 | COc1ccc(S(=O)(=O)C2(C(=O)NO)CCN(Cc3ccc(F)cc3)CC2)cc1 | 176 to 178
48 | O=C1c2ccccc2C(=O)N1Cc1cccc(CN2C(=O)c3ccccc3C2=O)n1 | > 250
49 | N=C(N)Nc1nc(CSCCNC(=O)c2cccc(NS(=O)(=O)c3ccccc3)c2)cs1 | 175 to 178
50 | [N-]=[N+]=NCCCn1cnc(-c2ccc(F)cc2)c1-c1ccncc1 | 64 to 65
51 | O=C1CSc2cccc(F)c2N1 | 190 to 191
52 | N=c1c2sc(=S)n(-c3ccccc3)c2ncn1NC(=O)c1ccco1 | 228
53 | CCCCc1nc2c(N)nc3ccccc3c2n1CCCCNC(=O)Nc1ccccc1 | 185 to 187
54 | CSCc1nc(C)c(C)c(O)n1 | 166
55 | O=C(CI)OCc1ccc([N+](=O)[O-])cc1 | 62.5 to 63.5
56 | COc1cc([N+](=O)[O-])c(N)cc1Cl | 128 to 129
57 | Cc1ccc([N+](=O)[O-])cc1Nc1nccc(-c2cccnn2)n1 | 275 to 277
58 | CC(C)[C@H](N)C(=O)OCc1nc2c(N)nc3ccccc3c2n1CC(C)(C)O | 190 to 192
59 | O=Cc1ccc(OCc2cn(C(c3ccccc3)(c3ccccc3)c3ccccc3)cn2)cc1 | 181 to 182
60 | Fc1ccc(N2CCN(CCCc3[nH]nc4c3CSCC4)CC2)cc1 | 110 to 111
61 | NCCc1ccc(-c2csc(N=C(N)N)n2)o1 | 156 to 158
62 | Nc1ccc(CNc2ccccn2)cc1O | 136 to 138
63 | O=C1OCc2c1cccc2[N+](=O)[O-] | 134 to 136
64 | Cc1sc2ncc(C(O)C=Cc3ccccc3)n2c1C (stereo not drawn) | 149 to 151
65 | O=C(CN1CCCCC1)Nc1ccc(-c2cc(-c3c[nH]nc3-c3ccccn3)ccn2)cc1 | 180
66 | CN1CCc2cc(Cl)c(NC=O)cc2[C@@H](c2ccccc2)C1 | 135 to 136
67 | O=C1N(Cc2ccc(Cl)s2)c2cccc(Cl)c2C12COc1cc3c(cc12)OCO3 (stereo not drawn) | 167 to 168
68 | COc1nc(SC)cnc1NS(=O)(=O)c1cccc(Cl)c1Cl | 141 to 142

Next, values leading:

Row | melting point [°C] | SMILES
69 | 226 to 231 | Cc1nc(-c2ccc(N(C)C)cc2)sc1C(=O)O
70 | 240 to 250 | C[C@@H](NC(=O)c1c[nH]c2ncc(-c3nn(CCCO)c4cc(Cl)ccc34)nc12)C(=O)N1CC(C#N)C1
71 | 105 to 107 | COc1cc(Cc2ccc(N)c(C#N)c2)cc(OC)c1
72 | 223 to 225 | CS(=O)(=O)c1ccc(-n2nc(C(F)(F)F)cc2-c2ccc(-c3ccco3)cc2F)cc1
73 | 192 to 194 | NC(=O)CNC(=O)c1cc(F)cc(-c2ccc(F)c3cc(Cc4cc(F)cc(Cl)c4)sc23)c1
74 | 121 to 122 | CCCC(C)(C)C(O)C(c1cccc(Cl)c1)n1cnc(C)c1 (stereo not drawn)
75 | 176 to 177 | CC(=O)OCOC(=O)COC(=C1C(=O)N(C(N)=O)c2cc(Cl)c(F)cc21)c1cccs1
76 | 182 to 184 | CCC(NC(=O)COc1c(C)cccc1C)C(N)=O (stereo not drawn)
77 | 83 to 85.5 | COC(=O)CCCCc1cc2c(n1-c1ccccc1)CC(O)C2 (stereo not drawn)
78 | 65 | CC(=O)OC1CSC(Oc2cncc(-c3ccc(OC(C)C)c(F)c3)c2)C(OC(C)=O)C1OC(C)=O (stereo not drawn)
79 | 120 | COc1ccc(N2CCOCC2)c2sc(-c3nc4c([nH]3)CCN(C(=O)OC(C)(C)C)CC4)nc12
80 | 135 to 140 | COc1cc(NC(C)=O)c(Cl)cc1C(=O)N=[N+]=[N-]
81 | 200 to 201 | COC(=O)c1c[nH]cc1-c1cccc(Cl)c1Cl
82 | 253 to 254 | CC(=O)NC[C@H]1CN(c2ccc(C(=O)c3cnc4nc(C)cc(C)n34)cc2)C(=O)O1
83 | 192 to 194 | Cc1cccc(Nc2cc(Nc3cccc(OCC(N)=O)c3)ncn2)c1
84 | 217 to 219 | CCOP(=O)(NC(=O)c1[nH]c2cc(OC)c(OC)cc2c1-c1ccc(OC)c(OC)c1)OCC
85 | 82 | COc1cc(C)c(C(=O)CCCCCCCCCCCO)c(O)c1OC
86 | 124 to 126 | CO/N=C(/CNC(=O)c1cnc(OCC(F)(F)F)c(-c2ccc(Cl)c(Cl)c2)c1)C(F)(F)F
87 | 172 to 175 | CN(C)Cc1coc(-c2cccc(C3=Nc4ccc(-n5cccc5)cc4NC(=O)C3)c2)n1
88 | 146 to 148 | CC(C)Oc1cc(CCCOc2cc(CCC(=O)O)n(-c3ccccc3)n2)n(Cc2ccc(Cl)cc2Cl)n1
89 | 124 to 125 | CCOC(=O)/C(=N\OC(C)(C)C(=O)OC(C)(C)C)c1nc(C(c2ccccc2)(c2ccccc2)c2ccccc2)sc1N
90 | 79 to 82 | CCCCOc1ccc(OCc2ccccc2)c(C(=O)O)c1
91 | 174 to 175 | CCCC(=O)Nc1ccc(-c2ccncc2)cc1
92 | 113 to 115 | CCOC(=O)c1c(-c2ccc(F)cc2)cc(-c2cccc3ccccc23)nc1C(C)C
93 | 121 to 124 | CCCc1cc2cc(O)c(F)cc2c(Oc2ccc(/C=C/C(N)=O)cc2)c1-c1ccccc1
94 | 310 | O=c1[nH]c2cc(Cl)ccc2c(O)c1-n1cccn1
95 | 127 to 129 | COc1c(C)c(NC(=O)NCCO)c(C)c2c1OCC2c1ccc(C(C)C)cc1 (stereo not drawn)
96 | 96 to 97 | CCOC(=O)[C@H](CO)NC(=O)[C@H](CC(=O)OCc1ccccc1)NC(=O)OC(C)(C)C
97 | 193 to 194 | CNC(=O)NS(=O)(=O)c1cc2c(cc1OC)OCCC2CNC(=O)c1cc(F)ccc1OC (stereo not drawn)
98 | 262 to 264 | COc1cccc2c1CN(c1c(F)cc3c(=O)c(C(=O)O)cn4c3c1OCC4C)C2 (stereo not drawn)
